Converted amounts (≈) assume the structure as drawn. “And” between values parts separate entries of the source, which are not always exact repeats. Equal entries are not always repeated. Where two headings read alike, the source gives them in different places.
Assays:
[1] = system: A. flavus; assay: Modified disk diffusion, inhibition zone; type: cell-based, Aspergillus flavus
Description: (§1) The antimicrobial effects of the currently synthesized Schiff bases (6a-l) were tested against two Gram-positive bacteria (S. aureus and B. subtilis), two Gram-negative bacteria (E. coli and P. aeruginosa), and two strains of fungus (A. flavus and C. albicans). The modified disk diffusion method ([Alkhaldi et al., 2019]; [Manso et al., 2021]) was used to determine the inhibition zones (IZ, mm/mL) and the minimal inhibitory concentration (MIC, nM). Ciprofloxacin and Fluconazole was used as positive controls. Tables 1–3 display the findings. […]
(§2) incubated at 35-37 °C for 24-48 hours and yeast as Candida albicans (ATCC 7102) incubated at 30 °C for 24-48 hours and, then the diameters of the inhibition zones were measured in millimeters. Standard discs of ciprofloxacin (Antibacterial agent), Fluconazole (Antifungal agent) served as positive controls for antimicrobial activity but filter discs impregnated with 10 µl of solvent (distilled water, chloroform, DMSO) were used as a negative control. Blank paper disks (Schleicher & Schuell, Spain) with a diameter of 8.0 mm were impregnated 10µ of tested concentration of the stock solutions. When a filter paper disc impregnated with a tested chemical is placed on agar the chemical will diffuse from the disc into the agar. This diffusion will place the chemical in the agar only around the disc. […]

[2] = system: C. albicans; assay: Modified disk diffusion, inhibition zone; type: cell-based, Candida albicans
Description: as §1, §2

[3] = system: B. subtilis; assay: MIC/MBC assay, twofold serial dilution; type: cell-based, Bacillus subtilis
Description: (§3) The results of this in vitro assay test are consistent with the findings of the antimicrobial sensitivity test. […] It has lower antimicrobial activity than ciprofloxacin against all pathogens tested.
(§4) The MBC differs from the MIC. […]
(§5) 4.2.2. Minimum inhibitory concentration assay
(§6) In 96-well microtiter plates and […] of fresh bacterial culture of a single McFarland unit overnight, a double serial dilution of each compound […] in sterile standard saline were prepared to every single source well. Ciprofloxacin antibiotic (5 mg / mL - 1) and normal saline were included as standard reference in each assay. The plates were incubated at 37 0C overnight. As an indicator of bacterial growth, […] of p-iodonitrotetrazolium violet (INT) was added to each well and incubated at 37 0C for 30 […]
(§7) min. MIC values are recorded as the lowest concentration of the extract that completely inhibited bacterial growth that is clear well. The colorless tetrazolidium salt acts as an electron accepter and is reduced to a red colored formazan product by biological activity organisms. Where bacterial growth was inhibited, the solution in the well remained clear after incubation with INT. […]

[4] = system: S. aureus; assay: MIC/MBC assay, twofold serial dilution; type: cell-based, Staphylococcus aureus
Description: as §3, §4, §5, §6, §7

[5] = system: E. coli; assay: MIC/MBC assay, twofold serial dilution; type: cell-based, Escherichia coli; conditions: for MIC: read-out: MIC
Description: as §3, §4, §5, §6, §7

[6] = system: P. aeruginosa; assay: MIC/MBC assay, twofold serial dilution; type: cell-based, Pseudomonas aeruginosa; conditions: for MIC: read-out: MIC
Description: as §3, §4, §5, §6, §7

[7] = system: Gram-positive and Gram-negative bacteria; assay: Disk diffusion inhibition zone, all bacterial pathogens tested; type: cell-based
Description: The antimicrobial effects of the currently synthesized Schiff bases (6a-l) were tested against two Gram-positive bacteria (S. aureus and B. subtilis), two Gram-negative bacteria (E. coli and P. aeruginosa), and two strains of fungus (A. flavus and C. albicans). The modified disk diffusion method ([Alkhaldi et al., 2019]; [Manso et al., 2021]) was used to determine the inhibition zones (IZ, mm/mL) and the minimal inhibitory concentration (MIC, nM). Ciprofloxacin and Fluconazole was used as positive controls. Tables 1–3 display the findings.

[8] = system: B. subtilis; design: method as in Al-Wahaibi et al., 2024; conditions: ref Al-Wahaibi et al., 2024; cited from earlier work
[9] = target: Topoisomerase IV; conditions: earlier work; ref Al-Wahaibi et al., 2024; cited from earlier work
[10] = target: S. aureus DNA gyrase; design: method as in Alzahrani et al., 2022; conditions: ref Alzahrani et al., 2022; read-out: S. aureus DNA gyrase inhibitor IC50; cited from earlier work
[11] = system: S. aureus (ATCC 43300) (MRSA); assay: Antibacterial assay against multi-drug resistant strains (MIC/MBC); type: cell-based, Staphylococcus aureus; conditions: Staphylococcus aureus, S. aureus ATCC 43300 (MRSA)
[12] = system: E. coli (ATCC BAA-196); assay: as above; type: cell-based, Escherichia coli; conditions: Escherichia coli
[13] = system: P. aeruginosa (ATCC BAA-2111); assay: as above; type: cell-based, Pseudomonas aeruginosa; conditions: Pseudomonas aeruginosa
[14] = target: E. coli DNA gyrase (Escherichia coli, UniProt P0AES6); assay: E. coli DNA gyrase supercoiling inhibitory assay; type: biochemical
Description: The fluorescence was measured with a microplate reader (BioTek Synergy H4,
NaCl and 50 mM MgCl2) was added to terminate the enzymatic reaction. After
Initial screening was done at 100 or 10 μM concentration

[15] = target: DHFR E. Coli (Escherichia coli, UniProt P0ABQ4); assay: DHFR inhibitory assay; type: biochemical
[16] = Cell viability assay (MTT); type: cell-based; conditions: human, MCF-10A, 4-day incubation
Description: The vitality of the investigated compounds was assessed using the MCF-10A cell line, which is a normal human mammary gland epithelial cell line. Following a 4-day incubation period on MCF-10A cells with a concentration of 50 µM for each compound being studied, the viability of the cells was assessed using the MTT test ([Hisham et al., 2022]; [Mahmoud et al., 2022]).
4.2.3. Cell Viability assay
MTT assay was carried out to study the effect of compounds on mammary epithelial cells (MCF-10A). The medium in which cells were propagated contained Dulbecco's modified Eagle's medium (DMEM)/ Ham's F-12 medium (1:1) supplemented with epidermal growth factor (20 ng/mL), hydrocortisone (500 ng/mL), insulin (10 μg/mL), 2 mM glutamine and 10% fetal calf serum. After every 2-3 days, the cells were passaged using trypsin ethylenediamine tetra acetic acid (EDTA). The cells were seeded at a density of 10^4 cells mL-1 in flat-bottomed culture plates containing 96 wells each. After 24 h, medium was removed from the plates and the compounds in (in 0.1% DMSO) were added (in 200 μL medium to yield a final concentration of 0.1% v/v) to the wells of plates. A single compound was designated with four wells followed by incubation of plates for 96h at 37°C. After incubation, medium was removed completely from the plates followed by addition of MTT (0.4 mg/mL in medium) to each well and subsequent incubation of plates for 3h. MTT (along with the medium) was removed and DMSO (150μL) was added to each well of the culture plates, followed by vortexing and subsequent measurement of absorbance (at 540 nm) using microplate reader. The data are shown as percentage inhibition of proliferation in comparison with controls

[17] = system: Gram-positive bacteria; assay: MBC assay, Gram-positive bacteria together; type: cell-based; conditions: Gram-positive bacteria (B. subtilis, S. aureus)
Excerpt: The MBC differs from the MIC.

[18] = system: MDRB (multi-drug resistant bacteria); assay: MIC/MBC against the MDRB panel as a whole
Description: Norfloxacin, a broad-spectrum antibiotic, worked as positive control.

[19] = system: A. flavus; assay: Antifungal assay (MIC/MFC), twofold serial dilution; conditions: for MIC: A. flavus
[20] = system: C. albicans; assay: as above
[21] = Bacillus subtilis, read-out: MBC
[22] = Bacillus subtilis, read-out: MIC
[23] = Staphylococcus aureus, read-out: MBC
[24] = Staphylococcus aureus, read-out: MIC
[25] = Escherichia coli, read-out: MBC
[26] = Pseudomonas aeruginosa, read-out: MBC

Sequence of DHFR E. Coli (P0ABQ4 whole entry): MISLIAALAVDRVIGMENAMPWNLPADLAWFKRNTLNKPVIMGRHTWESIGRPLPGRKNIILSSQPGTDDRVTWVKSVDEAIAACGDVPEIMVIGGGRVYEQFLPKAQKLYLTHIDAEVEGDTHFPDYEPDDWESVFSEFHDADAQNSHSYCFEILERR

O=C(O)c1cn(C2CC2)c2cc(N3CCNCC3)c(F)cc2c1=O [Ciprofloxacin, reference compound]
Inhibition zone (IZ) diameter [1]: NA (NA: no activity (8 mm))
Inhibition zone (IZ) diameter [2]: NA (NA: no activity (8 mm))
MBC [3]: 0.019 ± 0.001 µM (≈ 0.0063 µg/mL)
MIC [3]: 0.01 ± 0.001 µM (≈ 0.00331 µg/mL)
MBC [3, 21]: 0.019 µM (≈ 0.0063 µg/mL)
MIC [3, 22]: 0.01 µM (≈ 0.00331 µg/mL)
MBC [4]: 0.045 ± 0.002 µM (≈ 0.0149 µg/mL)
MIC [4]: 0.03 ± 0.002 µM (≈ 0.00994 µg/mL)
MBC [4, 23]: 0.045 µM (≈ 0.0149 µg/mL)
MIC [4, 24]: 0.03 µM (≈ 0.00994 µg/mL)
MBC [5]: 0.09 ± 0.006 µM (≈ 0.0298 µg/mL)
MBC [5, 25]: 0.09 µM (≈ 0.0298 µg/mL)
MIC ([5]; Escherichia coli): 0.06 ± 0.004 µM (≈ 0.0199 µg/mL)
MBC [6]: 0.09 ± 0.006 µM (≈ 0.0298 µg/mL)
MBC [6, 26]: 0.09 µM (≈ 0.0298 µg/mL)
MIC ([6]; Pseudomonas aeruginosa): 0.06 ± 0.005 µM (≈ 0.0199 µg/mL)
Inhibition zones (IZ) [7]: 40 mm

CN(C)c1ccc(/C=N/NC(=O)c2cc(Cc3ccc(O)c(C(=O)N/N=C/c4ccc(N(C)C)cc4)c3)ccc2O)cc1 [Compound 5i]
Times less potent/effective than ciprofloxacin (MIC) [8]: 7 times
IC50 [9]: 5.8 µM

O=C1Nc2ccc(S(=O)(=O)N3CCOCC3)cc2/C1=N/NC(=O)C12CC3CC(CC(C3)C1)C2 [II]
IC50 [10]: 19.3 µM

O=C1Nc2ccc([N+](=O)[O-])cc2/C1=N/NC(=O)c1cc(Cc2ccc(O)c(C(=O)N/N=C3\C(=O)Nc4ccc([N+](=O)[O-])cc43)c2)ccc1O [Compound 6l]
MBC [3]: 0.043 ± 0.003 µM (≈ 0.0286 µg/mL)
Times less effective than ciprofloxacin (MIC) [3]: 2.5 times
MBC [3, 21]: 0.043 µM (≈ 0.0286 µg/mL)
MIC [3, 22]: 0.026 ± 0.002 µM (≈ 0.0173 µg/mL)
MBC [4]: 0.033 ± 0.002 µM (≈ 0.0219 µg/mL)
MIC [4]: 0.021 ± 0.002 µM (≈ 0.014 µg/mL)
Times more effective than ciprofloxacin (MIC) [4]: 1.5 times
MBC [4, 23]: 0.033 µM (≈ 0.0219 µg/mL)
MIC [4, 24]: 0.021 µM (≈ 0.014 µg/mL)
MBC [5, 25]: 0.077 ± 0.006 µM (≈ 0.0512 µg/mL)
MIC ([5]; Escherichia coli): 0.057 ± 0.004 µM (≈ 0.0379 µg/mL)
MBC [6]: 0.078 ± 0.006 µM (≈ 0.0518 µg/mL)
MBC [6, 26]: 0.078 µM (≈ 0.0518 µg/mL)
MIC ([6]; Pseudomonas aeruginosa): 0.057 ± 0.004 µM (≈ 0.0379 µg/mL)
MBC ([11]; read-out: MBC): 4.5 ± 0.2 µM (≈ 2.99 µg/mL)
MIC ([11]; read-out: MIC): 2.2 ± 0.1 µM (≈ 1.46 µg/mL)
MBC ([12]; ATCCBAA196): 4.8 ± 0.2 µM (≈ 3.19 µg/mL)
MIC ([12]; ATCCBAA196, read-out: MIC): 2.7 ± 0.1 µM (≈ 1.79 µg/mL)
MBC ([13]; ATCCBAA2111): 6.5 ± 0.25 µM (≈ 4.32 µg/mL)
MIC ([13]; ATCCBAA2111, read-out: MIC): 4.5 ± 0.2 µM (≈ 2.99 µg/mL)
IC50 [14]: 0.087 ± 0.006 µM
Potency relative to novobiocin against DNA gyrase [14]: twice as potent as novobiocin
IC50 [15]: 4.25 ± 0.1 µM
viability at 96 h, 50 µM [16]: 89%
MBC [17]: 0.028 to 0.058 µM (≈ 0.0186 to 0.0385 µg/mL)
MBC ([18]; read-out: MBC values): 4.5 to 6.5 µM (≈ 2.99 to 4.32 µg/mL)
MIC ([18]; read-out: MIC values): 2.2 to 4.5 µM (≈ 1.46 to 2.99 µg/mL)
MIC [19]: 15.60 µM and 15.60 ± 1 µM
MFC ([19]; Aspergillus flavus): 31.1 ± 2 µM (≈ 20.7 µg/mL)
MIC ([19]; Aspergillus flavus): 14.5 to 19.5 µM (≈ 9.64 to 13 µg/mL)
MIC ([20]; C. albicans): 19.50 ± 1 µM (≈ 13 µg/mL)
MFC ([20]; Candida albicans): 39.2 ± 3 µM (≈ 26.1 µg/mL)
MIC ([20]; Candida albicans): 19.5 µM (≈ 13 µg/mL)

Reference: paper PMC11590026, “Synthesis, enzyme inhibition, and docking studies of new schiff bases of disalicylic acid methylene-based derivatives as dual-target antibacterial agents” (Frontiers in Chemistry, 2024)
